Experimental data from paper PMC6364417, “Kinase inhibitor library screening identifies synergistic drug combinations effective in sensitive and resistant melanoma cells” (Journal of Experimental & Clinical Cancer Research : CR, 2019).

Assays:
Assay in all cases: Kinase inhibitor library screening, PrestoBlue cell viability, 1 or 10 μM, 72 h
[1] = system: 501Mel-GP cells (Dabrafenib-resistant)
Experimental: (§1) After 72 h of treatment, cell viability was assessed using the PrestoBlue Cell Viability Reagent (ThermoFisher Scientific). Measurements were performed with the CLARIOstar Monochromator microplate reader (BMG Labtech).
(§2) Kinase inhibitor library screening. […] Each cell line was treated in its sensitive form (parental), and also as 2 resistant derivatives, which were made resistant to either Vemurafenib (XP) or Dabrafenib (GP). Drugs were added at 2 different concentrations, 1 and 10 μM, for 72 h and cell viability was assessed using the PrestoBlue Cell Viability assay. Results are depicted as % viability compared to untreated cells. Each cell line was analyzed at least in duplicate. […] (XLSX 95 kb)

[2] = system: 501Mel cells (parental)
Experimental: as §1, §2

[3] = system: IGR37 cells (parental)
Experimental: as §1, §2

[4] = system: A375-GP cells (Dabrafenib-resistant)
Experimental: as §1, §2

[5] = system: A375-XP cells (Vemurafenib-resistant); conditions: for cell viability (kinase inhibitor library screening): in %
Experimental: as §1, §2

[6] = system: IGR37-XP cells (Vemurafenib-resistant); conditions: for cell viability (kinase inhibitor library screening): in %
Experimental: as §1, §2

[7] = system: IGR37-GP cells (Dabrafenib-resistant)
Experimental: as §1, §2

[8] = system: 501Mel-XP cells (Vemurafenib-resistant)
Experimental: as §1, §2

[9] = system: A375 cells (parental); conditions: for cell viability (kinase inhibitor library screening): in %
Experimental: as §1, §2

Question: Which viability at 1 µM ([1]; Homo sapiens, 72 h, read-out: cell viability, 501Mel GP, 1μΜ) does the source give for Oc1cccc(-c2nc(N3CCOCC3)c3oc4ncccc4c3n2)c1 [PI-103] here?
Answer: 20%

Question: What about the viability at 10 µM ([1]; Homo sapiens, 72 h, read-out: cell viability, 501Mel GP, 10μΜ) of the same compound?
Answer: 3.4%

Question: What about the viability at 1 µM ([2]; Homo sapiens, 72 h, read-out: cell viability, 501Mel Parental, 1μΜ) of the same compound?
Answer: 36.3%

Question: And the viability at 10 µM ([2]; Homo sapiens, 72 h, read-out: cell viability, 501Mel Parental, 10μΜ)?
Answer: 1.1%

Question: What about the viability at 1 µM ([3]; Homo sapiens, IGR-37, 72 h, read-out: cell viability, IGR37 Parental, 1μΜ) of the same compound?
Answer: 76.3%

Question: And the viability at 10 µM ([3]; Homo sapiens, IGR-37, 72 h, read-out: cell viability, IGR37 Parental, 10μΜ)?
Answer: 10.6%

Question: What about the viability at 1 µM ([4]; Homo sapiens, A-375, 72 h, read-out: cell viability, A375 GP, 1μΜ) of the same compound?
Answer: 55.6%

Question: What about the viability at 10 µM ([4]; Homo sapiens, A-375, 72 h, read-out: cell viability, A375 GP, 10μΜ) of the same compound?
Answer: 20.2%

Question: And the viability at 1 µM ([5]; Homo sapiens, A-375, 72 h, read-out: cell viability, A375 XP, 1μΜ)?
Answer: 49.4%

Question: What about the viability at 10 µM ([5]; Homo sapiens, A-375, 72 h, read-out: cell viability, A375 XP, 10μΜ) of the same compound?
Answer: 20.8%

Question: And the viability at 1 µM ([6]; Homo sapiens, IGR-37, 72 h, read-out: cell viability, IGR37 XP, 1μΜ)?
Answer: 80.5%

Question: And the viability at 10 µM ([6]; Homo sapiens, IGR-37, 72 h, read-out: cell viability, IGR37 XP, 10μΜ)?
Answer: 0.328%

Question: What about the viability at 1 µM ([7]; Homo sapiens, IGR-37, 72 h, read-out: cell viability, IGR37 GP, 1μΜ) of the same compound?
Answer: 87.6%

Question: And the viability at 10 µM ([7]; Homo sapiens, IGR-37, 72 h, read-out: cell viability, IGR37 GP, 10μΜ)?
Answer: 3.8%

Question: And the viability at 1 µM ([8]; Homo sapiens, 72 h, read-out: cell viability, 501Mel XP, 1μΜ)?
Answer: 13.4%

Question: What about the viability at 10 µM ([8]; Homo sapiens, 72 h, read-out: cell viability, 501Mel XP, 10μΜ) of the same compound?
Answer: -0.0754%

Question: What about the viability at 1 µM ([9]; Homo sapiens, A-375, 72 h, read-out: cell viability, A375 Parental, 1μΜ) of the same compound?
Answer: 61.4%

Question: And the viability at 10 µM ([9]; Homo sapiens, A-375, 72 h, read-out: cell viability, A375 Parental, 10μΜ)?
Answer: 24.2%

Question: Which “Cell viability in kinase inhibitor library screening, 501Mel GP, 1μΜ” value ([1]; 501Mel GP, 1μΜ, 72 h, in %) does the source give for O=C1NC(=O)C(=Cc2ccc(-c3ccc(F)cc3)o2)S1 (stereo in doubt) [CAY10505] here?
Answer: 96.4

Question: What about the “Cell viability in kinase inhibitor library screening, 501Mel GP, 10μΜ” value ([1]; 501Mel GP, 10μΜ, 72 h, in %) of the same compound?
Answer: 89.6

Question: And the “Cell viability in kinase inhibitor library screening, 501Mel Parental, 1μΜ” value ([2]; 501Mel Parental, 1μΜ, 72 h, in %)?
Answer: 99.8

Question: What about the “Cell viability in kinase inhibitor library screening, 501Mel Parental, 10μΜ” value ([2]; 501Mel Parental, 10μΜ, 72 h, in %) of the same compound?
Answer: 97.3

Question: And the “Cell viability in kinase inhibitor library screening, IGR37 Parental, 1μΜ” value ([3]; IGR37 Parental, 1μΜ, 72 h, in %)?
Answer: 103.7

Question: What about the “Cell viability in kinase inhibitor library screening, IGR37 Parental, 10μΜ” value ([3]; IGR37 Parental, 10μΜ, 72 h, in %) of the same compound?
Answer: 103.3

Question: What about the “Cell viability in kinase inhibitor library screening, A375 GP, 1μΜ” value ([4]; A375 GP, 1μΜ, 72 h) of the same compound?
Answer: 99.9

Question: What about the “Cell viability in kinase inhibitor library screening, A375 XP, 1μΜ” value ([5]; A375 XP, 1μΜ, 72 h) of the same compound?
Answer: 107.0

Question: And the “Cell viability in kinase inhibitor library screening, A375 XP, 10μΜ” value ([5]; A375 XP, 10μΜ, 72 h)?
Answer: 110.5

Question: What about the Cell viability in kinase inhibitor library screening, IGR37 XP, 10μΜ ([6]; IGR37 XP, 10μΜ, 72 h) of the same compound?
Answer: 77.3%

Question: And the Cell viability in kinase inhibitor library screening, IGR37 GP, 10μΜ ([7]; IGR37 GP, 10μΜ, 72 h)?
Answer: 94.4%

Question: And the “Cell viability in kinase inhibitor library screening, IGR37 GP, 1μΜ” value ([7]; IGR37 GP, 1μΜ, 72 h, in %)?
Answer: 98.2

Question: What about the “Cell viability in kinase inhibitor library screening, 501Mel XP, 1μΜ” value ([8]; 501Mel XP, 1μΜ, 72 h, in %) of the same compound?
Answer: 99.8

Question: And the “Cell viability in kinase inhibitor library screening, 501Mel XP, 10μΜ” value ([8]; 501Mel XP, 10μΜ, 72 h, in %)?
Answer: 90.3

Question: And the “Cell viability in kinase inhibitor library screening, A375 Parental, 10μΜ” value ([9]; A375 Parental, 10μΜ, 72 h)?
Answer: 93.9

Question: And the “Cell viability in kinase inhibitor library screening, A375 Parental, 1μΜ” value ([9]; A375 Parental, 1μΜ, 72 h)?
Answer: 105.4

Question: Which “cell viability (kinase inhibitor library screening)” value ([1]; 501Mel GP, 1μΜ, in %) does the source give for Cc1ccc(NC(=O)c2cccc(N(C)C)c2)cc1NC(=O)c1ccc(O)cc1 [ZM 336372] here?
Answer: 108.5

Question: And the “cell viability (kinase inhibitor library screening)” value ([1]; 501Mel GP, 10μΜ, in %)?
Answer: 81.6

Question: What about the “cell viability (kinase inhibitor library screening)” value ([2]; 501Mel Parental, 1μΜ, in %) of the same compound?
Answer: 98.4

Question: What about the “cell viability (kinase inhibitor library screening)” value ([2]; 501Mel Parental, 10μΜ, in %) of the same compound?
Answer: 89.6

Question: What about the “cell viability (kinase inhibitor library screening)” value ([3]; IGR37 Parental, 1μΜ, in %) of the same compound?
Answer: 102.6

Question: And the “cell viability (kinase inhibitor library screening)” value ([3]; IGR37 Parental, 10μΜ, in %)?
Answer: 105.1

Question: What about the “cell viability (kinase inhibitor library screening)” value ([4]; A375 GP, 10μΜ, in %) of the same compound?
Answer: 82.7

Question: And the “cell viability (kinase inhibitor library screening)” value ([5]; A375 XP, 1μΜ)?
Answer: 103.8

Question: And the “cell viability (kinase inhibitor library screening)” value ([5]; A375 XP, 10μΜ)?
Answer: 95.8

Question: And the “cell viability (kinase inhibitor library screening)” value ([6]; IGR37 XP, 1μΜ)?
Answer: 108.8

Question: What about the “cell viability (kinase inhibitor library screening)” value ([6]; IGR37 XP, 10μΜ) of the same compound?
Answer: 93.5

Question: What about the “cell viability (kinase inhibitor library screening)” value ([7]; IGR37 GP, 1μΜ, in %) of the same compound?
Answer: 99.1

Question: And the “cell viability (kinase inhibitor library screening)” value ([7]; IGR37 GP, 10μΜ, in %)?
Answer: 96.2

Question: What about the “cell viability (kinase inhibitor library screening)” value ([8]; 501Mel XP, 1μΜ, in %) of the same compound?
Answer: 90.4

Question: What about the “cell viability (kinase inhibitor library screening)” value ([8]; 501Mel XP, 10μΜ, in %) of the same compound?
Answer: 83.5

Question: And the “cell viability (kinase inhibitor library screening)” value ([9]; A375 Parental, 1μΜ)?
Answer: 103.4

Question: What about the “cell viability (kinase inhibitor library screening)” value ([9]; A375 Parental, 10μΜ) of the same compound?
Answer: 91.8
